The record followed here is PubChem BioAssay AID330 (DTP/NCI, 2004).

In this assay the test system is P388 leukemia ip, CD2F1 mice, survival T/C. Kind of assay: NCI In Vivo Anticancer Drug Screen. Data for tumor model P388 Leukemia (intraperitoneal) in CD2F1 (CDF1) mice. Conditions: endpoint: median survival time, higher = longer survival. In a few lines:
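Mice carrying the transplanted tumor received test compound or vehicle. Survival was recorded in each group, and the value is the treated-group measurement divided by that of the vehicle-treated control group.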

The mark [1] stands for this setting: dose: 60.0 mg/kg/injection, schedule: Q01DX005 (ip), vehicle: Klucel (hydroxypropylcellulose) (HPC).
Where [2] appears, read: dose: 120.0 mg/kg/injection, schedule: Q01DX005 (ip), vehicle: Klucel (hydroxypropylcellulose) (HPC).
[3] abbreviates: dose: 240.0 mg/kg/injection, schedule: Q01DX005 (ip), vehicle: Klucel (hydroxypropylcellulose) (HPC).
The mark [4] stands for this setting: dose: 12.5 mg/kg/injection, schedule: Q01DX009 (ip), vehicle: saline with Tween-80.
The mark [5] stands for this setting: dose: 25.0 mg/kg/injection, schedule: Q01DX009 (ip), vehicle: saline with Tween-80.
The mark [6] stands for this setting: dose: 50.0 mg/kg/injection, schedule: Q01DX009 (ip), vehicle: saline with Tween-80.
[7] abbreviates: dose: 50.0 mg/kg/injection, schedule: Q01DX009 (ip), vehicle: saline.
The mark [8] stands for this setting: dose: 100.0 mg/kg/injection, schedule: Q01DX009 (ip), vehicle: saline.
Setting [9] is: dose: 200.0 mg/kg/injection, schedule: Q01DX009 (ip), vehicle: saline.
Where [10] appears, read: dose: 50.0 mg/kg/injection, schedule: Q01DX005 (ip), vehicle: saline with Tween-80.
[11] abbreviates: dose: 100.0 mg/kg/injection, schedule: Q01DX005 (ip), vehicle: saline with Tween-80.
[12] abbreviates: dose: 50.0 mg/kg/injection, schedule: Q01DX005 (ip), vehicle: Klucel (hydroxypropylcellulose) (HPC).
The mark [13] stands for this setting: dose: 100.0 mg/kg/injection, schedule: Q01DX005 (ip), vehicle: Klucel (hydroxypropylcellulose) (HPC).
Setting [14] is: dose: 200.0 mg/kg/injection, schedule: Q01DX005 (ip), vehicle: Klucel (hydroxypropylcellulose) (HPC).
Where [15] appears, read: dose: 120.0 mg/kg/injection, schedule: Q01DX005 (ip), vehicle: saline with Tween-80.
The mark [16] stands for this setting: dose: 240.0 mg/kg/injection, schedule: Q01DX005 (ip), vehicle: saline with Tween-80.
Setting [17] is: dose: 60.0 mg/kg/injection, schedule: Q01DX005 (ip), vehicle: saline with Tween-80.

Values joined by “and” are separate entries in the source; they are usually repeats but may differ in a detail not shown here. Identical values can stand only once. Inconclusive results and toxic doses are left out.

On to `O=C1C2=C(Nc3cc([N+](=O)[O-])ccc3N2)OC1c1ccccc1O` (stereo unspecified), for which the T/C by setting is: (dose: 30.0 mg/kg/injection, schedule: Q01DX005 (ip), vehicle: Klucel (hydroxypropylcellulose) (HPC)) 106 % of control; under setting [1], 103 % of control and 90 % of control; under setting [2], 101 % of control; under setting [3], 90 % of control.
In the case of `CC1CC=[N+]([O-])C1(C)C` (stereo unspecified), the T/C by setting is: under setting [4], 95 % of control; under setting [5], 102 % of control; under setting [6], 102 % of control and 86 % of control.
For `Cn1nc(-c2ccc(Cl)c(Cl)c2)[n+]([O-])c2c(=O)n(C)c(=O)nc1-2`, the T/C runs as follows: (dose: 6.25 mg/kg/injection, schedule: Q01DX009 (ip), vehicle: saline with Tween-80) 120 % of control; under setting [4], 110 % of control and 115 % of control.
As to `CCCCNC(=O)C(N)CON` (stereo unspecified), the T/C by setting is: (dose: 50.0 mg/kg/injection, schedule: Q01DX005 (ip), vehicle: saline) 106 % of control; (dose: 100.0 mg/kg/injection, schedule: Q01DX005 (ip), vehicle: saline) 113 % of control; (dose: 200.0 mg/kg/injection, schedule: Q01DX005 (ip), vehicle: saline) 106 % of control.
Regarding `CCCCCCCCOC(=O)NCCCCC(N)C(=O)O` (stereo unspecified), the T/C by setting is: under setting [7], 87 % of control; under setting [8], 101 % of control; under setting [9], 103 % of control.
Consider `CC(CCc1ccccc1)NC1=NCCO1` (stereo unspecified), for which the T/C by setting is: (dose: 100.0 mg/kg/injection, schedule: Q04DX003 (ip), vehicle: saline with Tween-80) 95 % of control; (dose: 200.0 mg/kg/injection, schedule: Q04DX003 (ip), vehicle: saline with Tween-80) 100 % of control; (dose: 400.0 mg/kg/injection, schedule: Q04DX003 (ip), vehicle: saline with Tween-80) 90 % of control.
As for `C/C(=N\O)c1ccc2ccccc2c1`, the T/C under setting [7] is 101 % of control, the T/C under setting [8] is 113 % of control and the T/C under setting [9] was 102 % of control.
For `CCOC(=O)CC1=CSC(=C(C(=O)OCC)C(=O)OCC)N1c1ccccc1`, the T/C is 96 % of control under setting [10]; 91 % of control under setting [11]; 86 % of control (dose: 200.0 mg/kg/injection, schedule: Q01DX005 (ip), vehicle: saline with Tween-80).
Take `Cc1cc(C(O)(C(F)(F)F)C(F)(F)F)c2c(c1)C(C(F)(F)F)(C(F)(F)F)OC(C)(C)N2`: the T/C reads like this: under setting [12], 100 % of control; under setting [13], 100 % of control; under setting [14], 101 % of control.
Turning to `CCCC(OC(C)=O)C(C)[N+](=O)[O-]` (stereo unspecified), the T/C is 91 % of control under setting [4]; 100 % of control under setting [5]; 102 % of control under setting [6]; 104 % of control (dose: 100.0 mg/kg/injection, schedule: Q01DX009 (ip), vehicle: saline with Tween-80); 112 % of control (dose: 200.0 mg/kg/injection, schedule: Q01DX009 (ip), vehicle: saline with Tween-80).
For the compound `CNS(=O)Nc1ccnc(=O)[nH]1` (stereo unspecified), the T/C by setting is: (dose: 50.0 mg/kg/injection, schedule: Q04DX002 (ip), vehicle: Klucel (hydroxypropylcellulose) (HPC)) 99 % of control; (dose: 100.0 mg/kg/injection, schedule: Q04DX002 (ip), vehicle: Klucel (hydroxypropylcellulose) (HPC)) 100 % of control; (dose: 200.0 mg/kg/injection, schedule: Q04DX002 (ip), vehicle: Klucel (hydroxypropylcellulose) (HPC)) 106 % of control; (dose: 400.0 mg/kg/injection, schedule: Q04DX002 (ip), vehicle: Klucel (hydroxypropylcellulose) (HPC)) 100 % of control.
Regarding `CCN(CC)C(=O)C1CN2CCc3cc(OC)c(OC)cc3C2CC1O` (stereo unspecified), the T/C under setting [12] was 104 % of control and 108 % of control; the T/C under setting [13] was 106 % of control and 109 % of control; the T/C under setting [14] was 123 % of control.
As to `CC(C)(C)C(=O)CC(=O)C(F)(F)C(F)(F)C(F)(F)F.CC(C)(C)C(=O)CC(=O)C(F)(F)C(F)(F)C(F)(F)F.CC(C)(C)C(=O)CC(=O)C(F)(F)C(F)(F)C(F)(F)F.[Ho]`, the T/C by setting is: under setting [15], 111 % of control; under setting [16], 110 % of control.
For `Nc1nnc2nc(CC(=O)c3ccc([N+](=O)[O-])cc3)c(CC(=O)c3ccc([N+](=O)[O-])cc3)nn12`, the T/C runs as follows: (dose: 60.0 mg/kg/injection, schedule: Q01DX005 (ip), vehicle: saline) 98 % of control; (dose: 120.0 mg/kg/injection, schedule: Q01DX005 (ip), vehicle: saline) 100 % of control; (dose: 240.0 mg/kg/injection, schedule: Q01DX005 (ip), vehicle: saline) 100 % of control.
Regarding `C=C1C(=O)C23C(OC(=O)/C=C/c4ccccc4)C1CCC2C12COC3(O)C(O)C1C(C)(C)CCC2O` (stereo unspecified), the T/C by setting is: (dose: 3.75 mg/kg/injection, schedule: Q01DX009 (ip), vehicle: saline with Tween-80) 98 % of control; (dose: 7.5 mg/kg/injection, schedule: Q01DX009 (ip), vehicle: saline with Tween-80) 95 % of control; (dose: 15.0 mg/kg/injection, schedule: Q01DX009 (ip), vehicle: saline with Tween-80) 101 % of control; (dose: 30.0 mg/kg/injection, schedule: Q01DX009 (ip), vehicle: saline with Tween-80) 98 % of control.
For `[N-]=[N+]=Nc1ccc(SSCCC(=O)ON2C(=O)CCC2=O)cc1`, the T/C was 118 % of control under setting [10] and 116 % of control under setting [11].
Regarding `CC1=CN2C(c3cccc([N+](=O)[O-])c3)=NON(c3ccc(C)cn3)C2C=C1` (stereo unspecified), the T/C under setting [17] was 87 % of control, the T/C under setting [15] was 86 % of control and the T/C under setting [16] was 92 % of control.
On to `O=C1CCSC(=S)N1c1ccc(F)cc1F`, for which the T/C by setting is: (dose: 6.25 mg/kg/injection, schedule: Q01DX009 (ip), vehicle: saline) 92 % of control; (dose: 12.5 mg/kg/injection, schedule: Q01DX009 (ip), vehicle: saline) 94 % of control; (dose: 25.0 mg/kg/injection, schedule: Q01DX009 (ip), vehicle: saline) 91 % of control; under setting [8], 96 % of control; under setting [9], 90 % of control; (dose: 200.0 mg/kg/injection, schedule: Q01DX009 (ip), vehicle: suspension in saline) 92 % of control.
Take `C[C@@H](N)C(=O)NC(CO)CC(N)C=O` (stereo partly specified): the T/C runs as follows: (dose: 50.0 mg/kg/injection, schedule: Q04DX002 (ip), vehicle: saline) 105 % of control and 115 % of control; (dose: 100.0 mg/kg/injection, schedule: Q04DX002 (ip), vehicle: saline) 111 % of control and 120 % of control; (dose: 200.0 mg/kg/injection, schedule: Q04DX002 (ip), vehicle: saline) 109 % of control and 121 % of control; (dose: 400.0 mg/kg/injection, schedule: Q04DX002 (ip), vehicle: saline) 122 % of control.
On to `Cc1cc2c(=O)c(C(=O)O)c[nH]c2cc1-n1cccc1`, for which the T/C reads like this: under setting [17], 97 % of control; under setting [15], 100 % of control; under setting [16], 102 % of control.
For `O=C(NCCCCCCNC(=O)C12CC3CC(CC(C3)C1)C2)C12CC3CC(CC(C3)C1)C2`, the T/C by setting is: under setting [12], 92 % of control; under setting [13], 92 % of control; under setting [14], 90 % of control.
In the case of `O=C(O)c1cccc2cccc(-c3c4ccc(=O)cc-4oc4cc(O)ccc34)c12`, the T/C reads like this: under setting [17], 101 % of control; under setting [15], 100 % of control; under setting [16], 98 % of control.
For `COc1ccc2c(c1OC)C(CC(C)=O)N1CCc3cc4c(cc3C1C2=O)OCO4` (stereo unspecified), the T/C is 100 % of control under setting [1], 92 % of control under setting [2] and 88 % of control under setting [3].
For `CC1CN1S(=O)(=O)N1CC1C` (stereo unspecified), the T/C by setting is: (dose: 11.0 mg/kg/injection, schedule: Q04DX003 (ip), vehicle: saline with Tween-80) 110 % of control; (dose: 16.5 mg/kg/injection, schedule: Q04DX003 (ip), vehicle: saline with Tween-80) 155 % of control; (dose: 20.0 mg/kg/injection, schedule: Q01DX009 (ip), vehicle: saline with Tween-80) 209 % of control; (dose: 25.0 mg/kg/injection, schedule: Q04DX003 (ip), vehicle: saline with Tween-80) 195 % of control; (dose: 37.5 mg/kg/injection, schedule: Q04DX003 (ip), vehicle: saline with Tween-80) 270 % of control; (dose: 40.0 mg/kg/injection, schedule: Q01DX009 (ip), vehicle: saline with Tween-80) 172 % of control.
